Experimental data published in ChEMBL document CHEMBL1201862, “PubChem BioAssay data set” (2004).
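Values below derive from 48-hour exposures of cells grown in 96-well plates, with endpoints linearly interpolated between the two concentrations bracketing the appropriate inhibition level. At the GI50, growth is halved.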 Activity calls are given as the source filed them. No stated cut-off is given here; in the data, active = GI50 up to about 1.1 µM and inactive = higher.

Legend:
Assay in all cases: DTP human tumour cell line panel, 48 h
[1] = system: HL-60
[2] = system: DU-145
[3] = system: UO-31
[4] = system: EKVX
[5] = system: NCI/ADR-RES
[6] = system: SR
[7] = system: K562
[8] = system: MDA-MB-435
[9] = system: SF-268
[10] = system: UACC-257
[11] = system: MDA-N
[12] = system: Hs-578T
[13] = system: 786-0
[14] = system: M14
[15] = system: MCF7
[16] = system: HCC 2998
[17] = system: U-251
[18] = system: A498
[19] = system: NCI-H522

| SMILES | GI50 [1] | GI50 [2] | GI50 [3] | GI50 [4] | GI50 [5] | GI50 [6] | GI50 [7] | GI50 [8] | GI50 [9] | GI50 [10] | GI50 [11] | GI50 [12] | GI50 [13] | GI50 [14] | GI50 [15] | GI50 [16] | GI50 [17] | GI50 [18] | GI50 [19] |
| --- | --- | --- | --- | --- | --- | --- | --- | --- | --- | --- | --- | --- | --- | --- | --- | --- | --- | --- | --- |
| CCOC(=O)C(NC(=O)c1ccccc1)(c1ccc(S(=O)(=O)Nc2onc(C)c2C)cc1)C(F)(F)F (configuration not stated) | > 100 µM (inactive) | > 100 µM (inactive) | > 100 µM (inactive) | > 100 µM (inactive) | > 100 µM (inactive) | > 100 µM (inactive) | > 100 µM (inactive) | > 100 µM (inactive) | > 100 µM (inactive) | > 100 µM (inactive) | > 100 µM (inactive) | > 100 µM (inactive) | > 100 µM (inactive) | > 100 µM (inactive) | > 100 µM (inactive) | > 100 µM (inactive) | > 100 µM (inactive) |  |  |
| Clc1ccc(CSc2ncnc3c2ncn3C2CCCCO2)cc1 (configuration not stated) |  | 31.2 µM (inactive) | 1.88 µM (inactive) | 13.4 µM (inactive) | 17.9 µM (inactive) |  | 12.6 µM (inactive) | 18.2 µM (inactive) | 23.3 µM (inactive) | 11.2 µM (inactive) | 20.1 µM (inactive) | 26.5 µM (inactive) | 22.5 µM (inactive) | 17.1 µM (inactive) | 26.6 µM (inactive) | 18.6 µM (inactive) | 19.6 µM (inactive) | 16.4 µM (inactive) | 13.8 µM (inactive) |
| COc1ccc(OC)c(/C=N/N=C2\C(=O)Nc3c(Cl)cc(Cl)cc32)c1 | 43.8 µM (inactive) |  | 41.6 µM (inactive) | 8.67 µM (inactive) | 20.2 µM (inactive) | 25.1 µM (inactive) | 36 µM (inactive) | 32.7 µM (inactive) |  | > 100 µM (inactive) | 20 µM (inactive) | 20.4 µM (inactive) | 33.3 µM (inactive) | 68.4 µM (inactive) | 46.1 µM (inactive) | > 100 µM (inactive) | 38.7 µM (inactive) | 71.6 µM (inactive) |  |
| Cc1[nH]c(=O)c2oc3cc4ccccc4cc3c2c1C(=O)O | > 10 µM (inactive) | > 10 µM (inactive) | > 10 µM (inactive) | > 10 µM (inactive) | > 10 µM (inactive) | > 10 µM (inactive) |  | > 10 µM (inactive) | > 10 µM (inactive) | > 10 µM (inactive) | > 10 µM (inactive) | > 10 µM (inactive) | > 10 µM (inactive) | > 10 µM (inactive) | > 10 µM (inactive) | > 10 µM (inactive) | > 10 µM (inactive) |  | > 10 µM (inactive) |
| COc1ccc(/C(Nc2ccccc2)=C(\CCl)c2ccccc2)cc1OC | 18.9 µM (inactive) | 86.3 µM (inactive) | 37.2 µM (inactive) | 24.3 µM (inactive) | 32.1 µM (inactive) |  | 15.7 µM (inactive) | 32.8 µM (inactive) | 97.1 µM (inactive) | 29.2 µM (inactive) | 35.7 µM (inactive) | > 100 µM (inactive) | 55.8 µM (inactive) | 41.4 µM (inactive) | 26.4 µM (inactive) | 48.1 µM (inactive) | 6.53 µM (inactive) | > 100 µM (inactive) | 16.7 µM (inactive) |
| COc1ccc(-n2sc3ncccc3c2=O)cc1 | 3.58 µM (inactive) | 39.4 µM (inactive) | 19.1 µM (inactive) | 14.8 µM (inactive) | 25 µM (inactive) | 13.2 µM (inactive) |  | 28.8 µM (inactive) | 24.7 µM (inactive) | 18.7 µM (inactive) | 21.5 µM (inactive) | 26.3 µM (inactive) | 15.9 µM (inactive) | 21.9 µM (inactive) | 19.9 µM (inactive) | 46.5 µM (inactive) | 23.1 µM (inactive) |  | 17.5 µM (inactive) |
| O=P(O)(O)c1ccc2c(c1)OCCOCCOCCOCCO2 | > 100 µM (inactive) | > 100 µM (inactive) | > 100 µM (inactive) | > 100 µM (inactive) |  | > 100 µM (inactive) | > 100 µM (inactive) | > 100 µM (inactive) | > 100 µM (inactive) | > 100 µM (inactive) | > 100 µM (inactive) | > 100 µM (inactive) | > 100 µM (inactive) |  | > 100 µM (inactive) | > 100 µM (inactive) |  | > 100 µM (inactive) | > 100 µM (inactive) |
| OCCOCn1nncc1Cn1ncc2c(SCc3ccccc3)ncnc21 | 16.5 µM (inactive) | > 100 µM (inactive) | 66.7 µM (inactive) | > 100 µM (inactive) | > 100 µM (inactive) |  | 37.7 µM (inactive) | 45.9 µM (inactive) | > 100 µM (inactive) | > 100 µM (inactive) | 54.7 µM (inactive) | > 100 µM (inactive) | 34.7 µM (inactive) | 59.3 µM (inactive) | 49.3 µM (inactive) | > 100 µM (inactive) | > 100 µM (inactive) | > 100 µM (inactive) | 42.8 µM (inactive) |
| COc1cccc(Nc2nc(C)c([N+](=O)[O-])c(Nc3cccc(OC)c3)n2)c1 | 11.2 µM (inactive) | 9.79 µM (inactive) | 9.27 µM (inactive) | 6.35 µM (inactive) | 2.92 µM (inactive) | 7.76 µM (inactive) | 8.65 µM (inactive) |  | 40.4 µM (inactive) | 9.57 µM (inactive) | 17.9 µM (inactive) | 50.1 µM (inactive) | 51.9 µM (inactive) | 10.4 µM (inactive) | 2.24 µM (inactive) |  | 49.1 µM (inactive) | 9.35 µM (inactive) | 8.18 µM (inactive) |
| CN1CN(c2ccccc2)C2(CCN(CCCN(C)c3ccc(F)cc3)CC2)C1=O | 3.21 µM (inactive) | 23.9 µM (inactive) | 16.2 µM (inactive) |  | 20.6 µM (inactive) |  | 1.58 µM (inactive) | 18.2 µM (inactive) | 20.3 µM (inactive) | 17.8 µM (inactive) | 16.3 µM (inactive) | 18.7 µM (inactive) | 18.6 µM (inactive) | 16.2 µM (inactive) | 15.2 µM (inactive) |  | 18.6 µM (inactive) | 29.4 µM (inactive) | 13.9 µM (inactive) |
| O=C(C1OC1c1ccc(F)cc1)C12CC3CC(CC(C3)C1)C2 (configuration not stated) | 4.04 µM (inactive) | 34 µM (inactive) | 20.9 µM (inactive) | 19.3 µM (inactive) | 21.2 µM (inactive) |  | 17.6 µM (inactive) | 11.9 µM (inactive) | 22.4 µM (inactive) | 26.9 µM (inactive) | 12.7 µM (inactive) | 23.2 µM (inactive) | 15.2 µM (inactive) | 15.7 µM (inactive) | 22.2 µM (inactive) | 20.1 µM (inactive) | 11.4 µM (inactive) | 28.2 µM (inactive) | 17.4 µM (inactive) |
| CS(=O)(=O)N(CC(=O)O)Cc1ccccc1 |  | > 100 µM (inactive) |  | > 100 µM (inactive) | > 100 µM (inactive) | > 100 µM (inactive) | > 100 µM (inactive) | > 100 µM (inactive) | > 100 µM (inactive) | > 100 µM (inactive) | > 100 µM (inactive) | > 100 µM (inactive) | > 100 µM (inactive) | > 100 µM (inactive) | > 100 µM (inactive) |  | > 100 µM (inactive) | > 100 µM (inactive) | > 100 µM (inactive) |
| O=C1C(Br)=C(c2ccccc2)O/C1=C/C(=O)c1ccc(Br)cc1 | 13 µM (inactive) | > 100 µM (inactive) | 28.8 µM (inactive) | > 100 µM (inactive) |  | 27.5 µM (inactive) | 25.6 µM (inactive) | 42.1 µM (inactive) | 53.1 µM (inactive) |  | 15.5 µM (inactive) | 50 µM (inactive) | 18.4 µM (inactive) | > 100 µM (inactive) | 36.7 µM (inactive) | > 100 µM (inactive) | 30.8 µM (inactive) | > 100 µM (inactive) | 16.9 µM (inactive) |
| COc1cccc2c1OC(c1ccc(Cl)cc1)C([N+](=O)[O-])=C2 (configuration not stated) | > 100 µM (inactive) | 3.68 µM (inactive) | 1.77 µM (inactive) | 11.7 µM (inactive) | 3.79 µM (inactive) | 0.538 µM (active) | 0.411 µM (active) | 2.42 µM (inactive) | 3.18 µM (inactive) | 1.91 µM (inactive) | 1.42 µM (inactive) | 4.2 µM (inactive) | 1.84 µM (inactive) | 1.11 µM (active) | 1.2 µM (inactive) |  | 2.38 µM (inactive) |  | 1.59 µM (inactive) |
| CCOc1cc(C2SCC(=O)N2c2ccc(Oc3ccc(Cl)cc3)c(Cl)c2)ccc1O (configuration not stated) | 12.6 µM (inactive) | 16.6 µM (inactive) | 10 µM (inactive) | 18 µM (inactive) | 17.7 µM (inactive) | 2.04 µM (inactive) | 27.1 µM (inactive) | 19 µM (inactive) | 15.4 µM (inactive) | 17.5 µM (inactive) | 23.1 µM (inactive) | 17.3 µM (inactive) | 25 µM (inactive) | 23.5 µM (inactive) | 25.1 µM (inactive) | 17.9 µM (inactive) | 18.4 µM (inactive) |  | 13.2 µM (inactive) |
| CC(=O)OC1CC2(C)C(OC(C)=O)CC1C2(C)C (configuration not stated) | > 100 µM (inactive) | > 100 µM (inactive) | > 100 µM (inactive) |  | > 100 µM (inactive) | > 100 µM (inactive) | > 100 µM (inactive) | > 100 µM (inactive) | > 100 µM (inactive) | > 100 µM (inactive) | > 100 µM (inactive) | > 100 µM (inactive) | > 100 µM (inactive) | > 100 µM (inactive) | > 100 µM (inactive) | > 100 µM (inactive) | > 100 µM (inactive) |  | > 100 µM (inactive) |
